The source of these data is patent US3961066A, “6,7-Benzomorphan derivatives” (priority 1973, dated 1976).

Like-named read-outs stand apart in the source and are kept apart here.

Series [1] can be described thus: Physical dependency (abstinence syndrome, body weight decrease after withdrawal following 4 weeks of s.c. administration). The class given is in vivo, male rats of Wistar strain. Details: key to Abstinence syndrome: ++: severe decrease (about 5 % decrease); ++: moderate decrease; +: mild decrease; -: no decrease. Conditions: rats. The method, then: Note: Groups of animals of male rats of Wistar strain (body weight, 150 g), each group consisting of 20 male rats, were subcutaneously given the test compound twice a day for 4 consecutive weeks. On the next day after drug withdrawal, the body weight was measured. The symbols have the following meanings: ++, severe decrease (about 5 % decrease); ++, moderate decrease; +, mild decrease; -, no decrease.

Series [2] can be described thus: Analgesic activity (antagonism of the syndrome produced by intraperitoneal injection of 0.6 % aqueous acetic acid). The class given is in vivo, mice. To be noted: for ED50: Mus musculus; for ED50 / analgesic activity compared with morphine: sc; for analgesic activity compared with pentazocin: s.c., result in words; for analgesic activity compared with morphine: mouse, in vivo. How it is done: Note: The test was based on the specific antagonism of the test compound to the typical syndrome produced by intraperitoneal injection of 0.6 % aqueous acetic acid. The syndrome was characterized by intermittent contractions of the abdomen, twisting and turning of the trunk and extension of the hind legs. A group of 5 mice was used for each dose level. The test compound was administered subcutaneously 20 minutes before the injection of acetic acid. […] The ED50 value was calculated according to the Litchfield-Wilcoxon's method.

[3] abbreviates: mice, s.c. 20 minutes before the injection of acetic acid, Litchfield-Wilcoxon's method, read-out: ED50.

One may read the ED50 as the dose that gives a 50% effect, or the effect in half of the subjects.

As to `CC1CN(CCCC(=O)c2ccc(F)cc2)C2Cc3ccc(O)cc3C1(C)C2` (stereo not drawn) [2'-hydroxy-2-[γ-(p-fluorobenzoyl)-n-propyl]-4,5-dimethyl-6,7-benzomorphan], the Abstinence syndrome result in series [1] (s.c., 40 mg/kg/day for 4 weeks, twice a day, body weight measured on the next day after drug withdrawal) is “-”. The physical dependency entry in series [1] (subcutaneously, everyday for 4 weeks, result in words) is “did not produce any physical dependency”. Moreover, the ED50 in series [2] (setting [3]) was determined as 0.36 mg/kg. Further, in series [2] (mice), the “analgesic activity compared with pentazocin” value is given as “much more potent analgesic activity than pentazocin”. For the same compound, the “analgesic activity compared with morphine” value in series [2] is recorded as “more potent analgesic activity than morphine”.

For the compound `CC1CN(CCc2ccccc2)C2Cc3ccc(O)cc3C1(C)C2` (stereo not drawn) [2'-hydroxy-2-(β-phenylethyl)-4,5-dimethyl-6,7-benzomorphan], the ED50 in series [2] (setting [3]) came to 0.23 mg/kg. In addition, the “analgesic activity compared with pentazocin” value in series [2] (mice) is recorded as “much more potent analgesic activity than pentazocin”. Further, the “analgesic activity compared with morphine” value in series [2] was “more potent analgesic activity than morphine”.

Consider `CN1CC[C@]23c4c5ccc(O)c4O[C@H]2[C@@H](O)C=C[C@H]3[C@H]1C5` [Morphine, reference compound], for which, in series [2], the ED50 came to 1.2 mg/kg.
